Source: patent US20240115557A1, “INHIBITORS OF RNA-GUIDED NUCLEASES AND USES THEREOF” (The Brigham and Women's Hospital, Inc., priority 2022, published 2024)

Columns and labels:
SaCas9 = target: T1, SaCas9 (Staphylococcus aureus, UniProt J7RUA5); assay: eGFP secondary assay, SaCas9; format: cell-based; conditions: for Z score Avg Z: average of two replicates, Zscore>3 selected as hit; for Normalized Inhibition Rep 1: replicate 1; for Normalized eGFP Disruption Rep 1: replicate 1, % eGFP disruption; for Z score Rep1: replicate 1, Zscore>3 selected as hit; for Normalized Inhibition Rep 2: replicate 2; for Normalized eGFP Disruption Rep 2: replicate 2, % eGFP disruption; for Z score Rep 2: replicate 2, Zscore>3 selected as hit
T1 sequence (J7RUA5 1-1053): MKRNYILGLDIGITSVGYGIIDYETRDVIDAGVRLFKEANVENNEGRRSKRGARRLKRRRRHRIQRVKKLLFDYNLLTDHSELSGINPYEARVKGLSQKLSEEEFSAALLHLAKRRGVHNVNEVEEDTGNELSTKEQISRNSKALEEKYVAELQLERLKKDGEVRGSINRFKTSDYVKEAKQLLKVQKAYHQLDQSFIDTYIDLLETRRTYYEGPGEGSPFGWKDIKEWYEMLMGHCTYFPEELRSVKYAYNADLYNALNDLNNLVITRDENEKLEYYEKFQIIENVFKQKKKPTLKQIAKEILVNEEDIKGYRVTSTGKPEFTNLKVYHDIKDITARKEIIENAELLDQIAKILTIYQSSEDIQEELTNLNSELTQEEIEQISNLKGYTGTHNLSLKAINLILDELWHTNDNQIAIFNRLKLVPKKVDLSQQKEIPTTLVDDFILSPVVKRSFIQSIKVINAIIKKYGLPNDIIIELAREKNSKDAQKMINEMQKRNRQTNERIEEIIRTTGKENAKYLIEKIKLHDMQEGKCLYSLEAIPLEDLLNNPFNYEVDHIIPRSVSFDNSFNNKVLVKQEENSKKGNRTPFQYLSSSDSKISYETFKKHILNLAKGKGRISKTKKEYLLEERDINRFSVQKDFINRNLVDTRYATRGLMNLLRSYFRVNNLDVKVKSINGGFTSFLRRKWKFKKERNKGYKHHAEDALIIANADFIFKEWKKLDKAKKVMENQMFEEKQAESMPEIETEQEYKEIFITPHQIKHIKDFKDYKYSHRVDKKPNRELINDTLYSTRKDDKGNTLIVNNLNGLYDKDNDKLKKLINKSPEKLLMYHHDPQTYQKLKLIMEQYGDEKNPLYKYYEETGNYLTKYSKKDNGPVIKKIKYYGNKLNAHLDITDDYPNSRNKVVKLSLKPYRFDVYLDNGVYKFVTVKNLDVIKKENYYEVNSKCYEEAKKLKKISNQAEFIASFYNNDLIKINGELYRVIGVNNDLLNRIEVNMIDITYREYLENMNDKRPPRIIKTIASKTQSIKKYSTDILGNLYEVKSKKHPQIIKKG
Description: All hit compounds were moved forward into the secondary and tertiary screens, in which they were tested in cell-based assays. An eGFP assay is used to determine hits in cells as the secondary screen (eGFP assay).
The eGFP secondary assay evaluated the hits identified from the primary screen. The compounds were judged off the % eGFP disruption to determine the Cas9 inhibition and the assay Zscore. […] The hits from the secondary screens will be processed through tertiary screens of dose studies and HiBit Assay as detailed herein.

SpCas9 [1] = target: T2, SpCas9 (Streptococcus pyogenes serotype M1, UniProt Q99ZW2); assay: Strand displacement assay (SDA) / cumulative activity assay (CAA), SpCas9 primary screen; format: biochemical; conditions: Primary Screen (150 min); for Average Normalized Z score: average of replicates; for Normalized Z score 1: replicate 1; for Normalized Z score 2: replicate 2
T2 sequence (Q99ZW2 whole entry): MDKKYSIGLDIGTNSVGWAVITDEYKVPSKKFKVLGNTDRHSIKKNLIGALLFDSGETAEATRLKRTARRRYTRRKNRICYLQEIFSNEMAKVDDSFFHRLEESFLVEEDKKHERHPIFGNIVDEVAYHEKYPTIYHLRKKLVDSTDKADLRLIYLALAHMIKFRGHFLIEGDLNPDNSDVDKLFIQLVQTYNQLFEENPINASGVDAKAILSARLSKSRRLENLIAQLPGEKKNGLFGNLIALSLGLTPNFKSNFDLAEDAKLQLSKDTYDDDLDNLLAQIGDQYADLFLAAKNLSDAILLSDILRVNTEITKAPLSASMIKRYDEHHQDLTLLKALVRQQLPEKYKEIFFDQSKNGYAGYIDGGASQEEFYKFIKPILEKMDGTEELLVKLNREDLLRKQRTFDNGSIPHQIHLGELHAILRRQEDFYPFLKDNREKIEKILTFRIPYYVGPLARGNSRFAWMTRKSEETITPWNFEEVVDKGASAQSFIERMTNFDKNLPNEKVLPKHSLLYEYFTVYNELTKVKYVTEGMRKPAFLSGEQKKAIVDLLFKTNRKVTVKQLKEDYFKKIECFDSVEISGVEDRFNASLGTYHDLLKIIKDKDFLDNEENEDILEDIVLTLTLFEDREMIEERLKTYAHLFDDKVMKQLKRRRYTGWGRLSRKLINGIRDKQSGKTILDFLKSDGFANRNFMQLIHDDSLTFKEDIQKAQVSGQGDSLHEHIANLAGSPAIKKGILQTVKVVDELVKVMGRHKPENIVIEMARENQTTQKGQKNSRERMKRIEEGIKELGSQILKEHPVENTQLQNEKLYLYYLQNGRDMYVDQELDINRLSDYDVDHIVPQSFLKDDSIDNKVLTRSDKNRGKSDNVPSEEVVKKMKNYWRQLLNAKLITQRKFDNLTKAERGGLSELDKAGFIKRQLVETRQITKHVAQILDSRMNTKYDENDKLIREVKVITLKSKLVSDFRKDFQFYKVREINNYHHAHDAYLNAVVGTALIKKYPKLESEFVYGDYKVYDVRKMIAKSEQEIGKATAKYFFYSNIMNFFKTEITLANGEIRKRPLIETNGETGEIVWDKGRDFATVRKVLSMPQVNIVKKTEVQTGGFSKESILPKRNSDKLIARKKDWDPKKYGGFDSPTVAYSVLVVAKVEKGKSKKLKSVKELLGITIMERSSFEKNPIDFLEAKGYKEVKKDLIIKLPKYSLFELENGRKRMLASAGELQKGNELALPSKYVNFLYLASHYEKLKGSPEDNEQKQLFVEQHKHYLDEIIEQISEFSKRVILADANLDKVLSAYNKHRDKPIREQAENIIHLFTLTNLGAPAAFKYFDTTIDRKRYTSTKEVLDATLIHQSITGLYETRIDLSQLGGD
Method in brief: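 SpCas9:gRNA RNP in 20 mM Tris-HCl pH 7.5, 100 mM KCl, 5 mM MgCl2 was used at 10 nM (2× stock) with Alexa Fluor 647-labelled substrate and excess quencher strand (1 nM and 5 nM, 2× stocks). Fluorescence was read after 2.5 h at 37 °C, where cleavage lets the quencher strand anneal.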

SpCas9 [2] = target: T2, SpCas9; assay: eGFP disruption assay, SpCas9, U2OS.eGFP.PEST cells; format: cell-based; conditions: for Normalized Z rep1 / Z score Rep1: replicate 1; for SpCas9 eGFP disruption Rep1: replicate 1, raw readout; for Normalized Z rep2 / Z socre Rep2: replicate 2; for SpCas9 eGFP disruption Rep2: replicate 2, raw readout
Method in brief: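 Rescue of eGFP signal lost through Cas9-induced NHEJ indels serves as the inhibition read-out, after 24 h compound exposure (20 μM for hits, variable for dose-response). Editing was delivered by nucleofection into U2OS.eGFP.PEST cells as SpCas9/gRNA plasmids (300/30 ng) or RNP (10/12 pmol). Toxic and autofluorescent compounds were excluded.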

[3] = Cas9 = lower control, Ctrl = upper control
[4] = normalized, lower control about 0, upper control about 1

Row | Compound | Z score Avg Z (SaCas9) | Normalized Inhibition Rep 1 (SaCas9) | Normalized eGFP Disruption Rep 1 (SaCas9) | Z score Rep1 (SaCas9) | Normalized Inhibition Rep 2 (SaCas9) | Normalized eGFP Disruption Rep 2 (SaCas9) | Z score Rep 2 (SaCas9) | avg z score primary (SpCas9 [1]) | Average Normalized Z score (SpCas9 [1]) | Normalized Z score 1 (SpCas9 [1]) | Normalized Z score 2 (SpCas9 [1]) | Z score Rep1 (SpCas9 [2]) | Z socre Rep2 (SpCas9 [2]) | also measured
1 | Cc1cccc(NC(=O)c2cc3c(=O)n4ccccc4nc3s2)c1 [C243-0026] | 3.100 | 30.470 | 69.530 | 3.063 | 40.519 | 59.481 | 3.136 | – | – | – | – | – | – | –
2 | CCOc1ccc(NC(=O)c2cc(=O)c3cc(CC)ccc3o2)c2cccnc12 [Compound D656-0061] | 3.973 | 7.616 | 92.384 | 1.153 | 56.899 | 43.101 | 6.794 | – | – | – | – | – | – | –
3 | CCCCn1nnnc1NCc1ccc2c(c1)n(C)c(=O)n2C [Compound D664-0047] | 4.425 | 21.201 | 78.799 | 3.210 | 47.229 | 52.771 | 5.639 | – | – | – | – | – | – | –
4 | Fc1cccc(-c2nnc3sc(-c4c[nH]c5ccccc45)nn23)c1 [Compound D727-0772] | 3.957 | 42.243 | 57.757 | 6.397 | 12.707 | 87.293 | 1.517 | – | – | – | – | – | – | –
5 | Cc1ccc(-n2ncc(C(=O)Nc3ccc(Br)cc3)c2C2CCNCC2)cc1 [Compound E922-0258] | 7.627 | 63.301 | 36.699 | 7.494 | 59.004 | 40.996 | 7.761 | – | – | – | – | – | – | –
6 | CCCCN(CC)C(=O)C1CCCN(c2ccc(-c3ccccc3)nn2)C1 (stereo not drawn) [Compound F305-0030] | 4.852 | 42.608 | 57.392 | 5.044 | 35.423 | 64.577 | 4.659 | – | – | – | – | – | – | –
7 | Cc1[nH]nc2ccc(-c3cncc(OCC(N)Cc4ccccc4)c3)cc12 (stereo not drawn) [Compound S2670] | – | – | – | – | – | – | – | 3.67 | 0.19 | 0.17 | 0.21 | −22.46 | −33.58 | Normalized Z rep1 (SpCas9 [2]): −3.44; SpCas9 eGFP disruption Rep1 (SpCas9 [2]): 10.416; Normalized Z rep2 (SpCas9 [2]): −3.50; SpCas9 eGFP disruption Rep2 (SpCas9 [2]): 9.7985
8 | Cl.Cl.Fc1cc(-c2cccc3ncc(-c4cnn(C5CCNCC5)c4)nc23)cc(F)c1CN1CCOCC1 [Compound S2686] | – | – | – | – | – | – | – | 7.03 | 0.36 | 0.37 | 0.35 | −4.74 | −5.44 | Normalized Z rep1 (SpCas9 [2]): −0.73; SpCas9 eGFP disruption Rep1 (SpCas9 [2]): 62.196; Normalized Z rep2 (SpCas9 [2]): −0.57; SpCas9 eGFP disruption Rep2 (SpCas9 [2]): 65.516
9 | COc1ccc(-c2cc3c(C)nc(N)nc3n(C3CCC(OCCO)CC3)c2=O)cn1 (stereo not drawn) [Compound S2743] | – | – | – | – | – | – | – | 8.74 | 0.45 | 0.45 | 0.44 | −4.92 | −8.50 | Normalized Z rep1 (SpCas9 [2]): −0.75; SpCas9 eGFP disruption Rep1 (SpCas9 [2]): 61.679; Normalized Z rep2 (SpCas9 [2]): −0.89; SpCas9 eGFP disruption Rep2 (SpCas9 [2]): 59.461
10 | COc1ccc(-c2ccc3ncc4c(c3c2)n(-c2ccc(N3CCNCC3)c(C(F)(F)F)c2)c(=O)n4C)cn1.O=C(O)C=CC(=O)O [Compound S2749] | – | – | – | – | – | – | – | 6.76 | 0.34 | 0.35 | 0.34 | −26.02 | −38.53 | Normalized Z rep1 (SpCas9 [2]): −3.98; SpCas9 eGFP disruption Rep1 (SpCas9 [2]): 0; Normalized Z rep2 (SpCas9 [2]): −4.01; SpCas9 eGFP disruption Rep2 (SpCas9 [2]): 0
11 | Cc1c(P(=S)(N2CCOCC2)N2CCOCC2)cc(C#N)n1C [Compound T0503-9777] | – | – | – | – | – | – | – | 4.67 | 0.06 | 0.06 | 0.06 | 1.11 | 1.28 | SpCas9 eGFP disruption Rep1 (SpCas9 [2]; [3]): 60.694; Normalized Z rep1 (SpCas9 [2]; [4]): 0.08; SpCas9 eGFP disruption Rep2 (SpCas9 [2]; [3]): 57.686; Normalized Z rep2 (SpCas9 [2]; [4]): 0.06
12 | CCOC(=O)C1=C(C)NN=C(Nc2cccc(C)c2C)S1 [Compound T0519-6400] | – | – | – | – | – | – | – | 4.54 | 0.06 | 0.05 | 0.07 | 1.96 | 2.42 | SpCas9 eGFP disruption Rep1 (SpCas9 [2]; [3]): 62.891; Normalized Z rep1 (SpCas9 [2]; [4]): 0.14; SpCas9 eGFP disruption Rep2 (SpCas9 [2]; [3]): 59.8; Normalized Z rep2 (SpCas9 [2]; [4]): 0.12
13 | CCn1c(CCC(=O)O)nc2cc(S(N)(=O)=O)ccc21 [Compound T5380152] | – | – | – | – | – | – | – | 4.58 | 0.13 | 0.14 | 0.11 | −1.27 | 4.01 | SpCas9 eGFP disruption Rep1 (SpCas9 [2]; [3]): 54.565; Normalized Z rep1 (SpCas9 [2]; [4]): −0.09; SpCas9 eGFP disruption Rep2 (SpCas9 [2]; [3]): 62.745; Normalized Z rep2 (SpCas9 [2]; [4]): 0.19
14 | Cc1nc(Nc2ccc(N3CCOCC3)cc2)cc(-c2ccccc2)n1 [D278-0547] | 4.467 | 55.528 | 44.472 | 5.583 | 43.307 | 56.693 | 3.352 | – | – | – | – | – | – | –
15 | Cc1ccccc1CC(=O)N1CCCC(c2nc(O)c3nnn(Cc4ccc(F)cc4)c3n2)C1 (stereo not drawn) [D297-0031] | 3.488 | 35.959 | 64.041 | 3.615 | 43.425 | 56.575 | 3.361 | – | – | – | – | – | – | –
16 | Cc1cc(=O)c2cc(C(=O)Nc3ccc(F)cc3)ccc2[nH]1 [D421-0876] | 3.719 | 37.535 | 62.465 | 3.774 | 47.343 | 52.657 | 3.664 | – | – | – | – | – | – | –
17 | Cc1nc2nc(N(CCOc3ccccc3)S(=O)(=O)c3ccccc3)nn2c(C)c1Cl [D513-3628] | 5.173 | 51.726 | 48.274 | 5.201 | 66.480 | 33.520 | 5.145 | – | – | – | – | – | – | –
18 | Cc1ccc(C)c(Nc2nc(C(N)=O)c(NC(=O)c3ccc(C)nc3Cl)s2)c1 [D686-0195] | 6.110 | 29.879 | 70.121 | 4.525 | 64.458 | 35.542 | 7.696 | – | – | – | – | – | – | –
